Molecules are shown by their SMILES. pIC50: −log10 of the molar value.

The test addresses AF2 neuropeptide receptor. Put plainly: In vitro antihelminthic activity using AF2 Neuropeptide receptor binding assay in Caenorhabditis elegans.
With `COC(=O)c1ccccc1-c1nn(-c2c(Cl)cc(C(F)(F)F)cc2Cl)c(=N)s1`, the pIC50 was less than 4.00. To `N=c1sc(-c2ccc(C(F)(F)F)cc2)nn1-c1c(Cl)cc(Cl)cc1Cl` belongs 4.70. For `N=c1sc(-c2ccccn2)nn1-c1c(Cl)cc(Cl)cc1C(F)(F)F` the value was 6.85; for `N=c1sc(-c2ccc(C(F)(F)F)cc2F)nn1-c1c(Cl)cc(Cl)cc1Cl`, 6.00; for `N=c1sc(-c2ccccc2SC(F)(F)F)nn1-c1c(Cl)cc(C(F)(F)F)cc1Cl`, 4.25.

On to `COc1ccc(OC)c(-c2nn(-c3c(Cl)cc(C(F)(F)F)cc3Cl)c(=N)s2)c1`, for which the pIC50 was 5.40. This pIC50 is 1.15 log units higher than that of the compound before. Compound `N=c1sc(-c2cc(C(F)(F)F)ccc2F)nn1-c1c(Cl)cc(Cl)cc1Cl` gave a pIC50 of 7.00. To `CC(=O)Nc1ccc(-c2nn(-c3c(Cl)cc(Cl)cc3Cl)c(=N)s2)cc1` belongs 4.15. To `N=c1sc(-c2ccc(F)cc2)nn1-c1c(Cl)cc(Cl)cc1Cl` belongs 6.05; to `N=c1sc(-c2c(F)cccc2C(F)(F)F)nn1-c1c(Cl)cc(C(F)(F)F)cc1Cl`, less than 4.00. For `N=c1sc(-c2ccccn2)nn1-c1c(Cl)cc(C(F)(F)F)cc1Cl` the value was 7.05. For the compound `N=c1sc(-c2ccc(Cl)cc2)nn1-c1c(Cl)cc(Cl)cc1Cl`, the pIC50 was 5.30. This pIC50 lies 1.75 log units lower than the previous one. For `N=c1sc(-c2cccnc2)nn1-c1c(Cl)cc(Cl)cc1Cl` the value was 4.40.

`N=c1sc(-c2cc(F)ccc2F)nn1-c1c(Cl)cc(C(F)(F)F)cc1Cl` showed a pIC50 of 6.43. To `N=c1sc(-c2cccc(Br)n2)nn1-c1c(Cl)cc(C(F)(F)F)cc1Cl` belongs 4.70. To `N=c1sc(-c2ccc([N+](=O)[O-])cc2)nn1-c1c(Cl)cc(Cl)cc1Cl` belongs 5.30; to `N=c1sc(-c2ccccn2)nn1-c1c(Cl)cc(Cl)cc1Cl`, 6.40. To `COC(=O)c1ccnc(-c2nn(-c3c(Cl)cc(C(F)(F)F)cc3Cl)c(=N)s2)c1` belongs 6.89; to `N=c1sc(-c2ccnc([N+](=O)[O-])c2)nn1-c1c(Cl)cc(C(F)(F)F)cc1Cl`, 7.89; to `N=c1sc(-c2ccc(O)cc2)nn1-c1c(Cl)cc(Cl)cc1Cl`, 5.40.

Compound `N=c1sc(-c2cc(Cl)ccn2)nn1-c1c(Cl)cc(C(F)(F)F)cc1Cl` had a pIC50 of 6.80. For `N=c1sc(-c2cc(Br)ccc2F)nn1-c1c(Cl)cc(C(F)(F)F)cc1Cl` the value was 6.20. For `N=c1sc(-c2ccccc2F)nn1-c1c(Cl)cc(C(F)(F)F)cc1Cl` the value was 6.82; for `N=c1sc(-c2cncc(C(F)(F)F)c2)nn1-c1c(Cl)cc(C(F)(F)F)cc1Cl`, 7.68; for `N=c1sc(-c2cccc(C(F)(F)F)c2F)nn1-c1c(Cl)cc(Cl)cc1Cl`, 5.40. `CC(C)(C)c1cc(-c2nn(-c3c(Cl)cc(C(F)(F)F)cc3Cl)c(=N)s2)ccn1` gave a pIC50 of 7.43. For `N#Cc1ccnc(-c2nn(-c3c(Cl)cc(C(F)(F)F)cc3Cl)c(=N)s2)c1` the value was 8.00; for `COC(=O)c1ccc(-c2nn(-c3c(Cl)cc(Cl)cc3Cl)c(=N)s2)cc1`, 4.96. To `N=c1sc(-c2ccccc2F)nn1-c1c(Cl)cc(Cl)cc1Cl` belongs 6.30; to `N=c1sc(-c2cccc(F)c2)nn1-c1c(Cl)cc(Cl)cc1Cl`, 5.10; to `N=c1sc(-c2ncc(C(F)(F)F)cc2Cl)nn1-c1c(Cl)cc(C(F)(F)F)cc1Cl`, 5.62. To `N=c1sc(-c2ccccc2OC(F)(F)F)nn1-c1c(Cl)cc(C(F)(F)F)cc1Cl` belongs 4.07. On to `Cc1ccc(-c2nn(-c3c(Cl)cc(Cl)cc3Cl)c(=N)s2)cc1`, for which the pIC50 is 5.15.

The compound `N=c1sc(-c2cc(C(F)(F)F)ccc2F)nn1-c1c(Cl)cc(C(F)(F)F)cc1Cl` gave a pIC50 of 7.20.

In turn, `N=c1sc(-c2cc(CN)ccn2)nn1-c1c(Cl)cc(C(F)(F)F)cc1Cl` showed a pIC50 of 4.33.

In turn, `N#Cc1ccc(-c2nn(-c3c(Cl)cc(Cl)cc3Cl)c(=N)s2)cc1` showed a pIC50 of 5.22. For `CCOC(=O)Oc1ccc(-c2nn(-c3c(Cl)cc(Cl)cc3Cl)c(=N)s2)cc1` the value was 5.40; for `Cc1cccnc1-c1nn(-c2c(Cl)cc(C(F)(F)F)cc2Cl)c(=N)s1`, 4.96; for `N=c1sc(-c2cccnn2)nn1-c1c(Cl)cc(C(F)(F)F)cc1Cl`, 4.46. Compound `COc1ccc(-c2nn(-c3c(Cl)cc(Cl)cc3Cl)c(=N)s2)cc1` showed a pIC50 of 4.10. To `N=c1sc(-c2ccncn2)nn1-c1c(Cl)cc(C(F)(F)F)cc1Cl` belongs 5.59; to `N=c1sc(-c2ccccc2)nn1-c1c(Cl)cc(Cl)cc1Cl`, 5.52. For `Cc1ccccc1-c1nn(-c2c(Cl)cc(Cl)cc2Cl)c(=N)s1` the value was 5.40; for `N=c1sc(-c2cc([N+](=O)[O-])ccc2F)nn1-c1c(Cl)cc(C(F)(F)F)cc1Cl`, 6.20; for `N=c1sc(-c2ccc(Br)cc2)nn1-c1c(Cl)cc(Cl)cc1Cl`, 5.40. `N=c1sc(-c2ccc(OC(F)(F)F)cc2)nn1-c1c(Cl)cc(Cl)cc1Cl`: the pIC50 was 5.30. For the compound `N=c1sc(-c2cnccn2)nn1-c1c(Cl)cc(C(F)(F)F)cc1Cl`, the pIC50 is 6.70.

One may read the pIC50 as the IC50 on a negative log10 scale, so that one unit is a factor of ten. A high value points to a small IC50.

The values above are taken from ChEMBL document CHEMBL1131756, “Synthesis and biological activity of anthelmintic thiadiazoles using an AF-2 receptor binding assay” (Bioorg Med Chem Lett, 1999).
